Key:
HepG2 (NRAS Q61L) = experiment: Cell viability assay (CellTiter Glo); format: cell-based; settings: Homo sapiens, HepG2, 120 h, HepG2, 750 cells per well, read-out: BRAF Cytotoxicity (IC50, nM) HEPG2
Experimental: Cell viability was measured in the following MAPK pathway mutant cancer cell lines: A375 (BRAF V600E), HepG2 (NRAS Q61L), SK-MEL-30 (NRAS Q61K), and OCI-AML-2 (MBNL1-CRAF fusion). Cell viability was also measured in K562 cells.
A375, HepG2, SK-MEL-30 and OCI-AML-2 cells were grown in the appropriate growth medium as described in Table B2 below, and harvested at 50-80% confluence. Cells were counted and seeded at their appropriate density (see Table B1) in a 384-well plate (Corning 3570). A375, HepG2 and SK-MEL-30 were allowed to adhere overnight prior to treatment and the OCI-AML-2 were treated immediately for the indicated drug treatment times (Table 6).
Table 6 provides the growth media, number of cells seeded per well and drug treatment times for the each cell line. K562 cells were grown as described in Example B1 above.
Compounds were dissolved in DMSO and serially diluted. Serially-diluted compound or a DMSO only control (high control, “HC”) was added to the plated cells in each well. Compounds were tested at concentrations of about 10 μM to 0.51 nM, using three-fold dilutions. The final proportion of DMSO never exceeded 0.1%.
Plates were placed in a 37° C., […] incubator for the indicated treatment times (Table B1). Plates were then removed from the incubator and equilibrated for 15 minutes at room temperature. 40 μl of CellTiter Glo reagent (Promega) was added to measure the relative level of metabolically active cells by quantifying intracellular ATP concentrations. Plates were incubated for 30 minutes at room temperature, and luminescence was measured. Percent viability was normalized to a vehicle control only using the following formula: 0 viability=100×(LumSample−LumLC)/(LumHC−LumLC). Graphical curves were fitted using a nonlinear regression model with a sigmoidal dose response.

ABL1 (T315I) = ABL1 (T315I) (Homo sapiens (Human), UniProt P00519, T315I); experiment: Luminescence-based ABL kinase assay (Km ATP), ADP-Glo; format: biochemical; settings: measured using the Abl1 Km assay, read-out: IC50 (nM), value inside parentheses
Experimental: (§1) Kinase activity of ABL1 was measured using the ADP-Glo system (Promega), which measures formation of ADP using a luminescence-based method. Compounds were serially diluted in DMSO. 20 nL of compound or DMSO only (high control, HC) were added to a 384-well plate (OptiPlate-384, PerkinElmer) using an Echo550 liquid handler (Labcyte). 15 μL of kinase solution (10 mM MgCl2, 0.01% Brij-35, 2 mM DTT, 0.05% BSA, 1 mM EGTA, 50 mM HEPES pH 7.5, and 3.325 nM ABL1 [Carna Biosciences]) were added to each well of the 384-well plate containing the compounds. No enzyme control wells were included (low control, LC). The plate was incubated at room temperature for 30 minutes. 5 μL of a second solution containing 10 mM MgCl2, 0.01% Brij-35, 2 mM DTT, 0.05% BSA, 1 mM EGTA, 50 mM HEPES pH 7.5, 6 μM Peptide 2 (Perkin Elmer, Cat No 760346), and 40 μM ATP were added to each well to start the kinase reaction. The plate was incubated for 90 minutes at room temperature. 20 μL of ADP-Glo reagent (Promega) were then added to each well and the plate was incubated for 40 minutes at room temperature. 40 μL of kinase detection reagent (Promega) was added to each well and the plate was incubated for an additional 45 minutes at room temperature. During this step, ADP was converted to ATP, a substrate for luciferase, to produce luminescence signal. Luminescence was measured on an Envision plate reader (Perkin Elmer). Luminescence signal positively correlates with kinase activity. The percent kinase activity was calculated as follows: percent kinase activity=100×(LumSample−LumLC)/(LumHC−LumLC). As noted above, DMSO only and no enzyme wells were used as high and low controls, respectively. IC50 values were calculated using the XLFit software.

ABL1 = ABL1 (Homo sapiens (Human), UniProt P00519); experiment: as above; format: biochemical; settings: measured using the Abl1 Km assay, read-out: IC50 (nM), value inside parentheses
Experimental: as §1

[1] = test system: phosphorylated ERK (pERK); experiment: Detection of phosphorylated ERK (pERK), AlphaLISA in A375 cells; format: cell-based; settings: Homo sapiens, A-375, 4 h, four hours incubation, inhibition of ERK phosphorylation, read-out: PERK ELISA (IC50)
Experimental: A375 cells were counted and seeded at 10,000 cells/well in 384 well plates (Corning 3764) and allowed to adhere overnight.
Compounds were dissolved and serially diluted in DMSO. The compounds were then added, mixed, and incubated for four hours at 37° C., 5% CO2. Compounds were added using four-fold dilutions at final concentrations ranging from 10 μM to 0.01 nM. DMSO only and 10 uM staurosporine were added as high and low controls.
Following the four-hour incubation with compounds, cell lysates were prepared and AlphaLISA assay measuring phosphorylated ERK was performed. Media was removed using the Apricot Designs pipettor. Lysis buffer was made from 1× AlphaLISA SureFire Assay Kit (AlphaLISA SureFire Ultra pERK 12 (Thr202/Tyr204) ALSU-PERK-A50K) lysis buffer with protease and phosphatase inhibitors. Cells were lysed by adding 10 uL to all the wells and mixed for 40 minutes on a plate shaker. 10 uL cell lysate was transferred to a new Optiplate (PerkinElmer 6007290) and incubated with 5 uL 1× acceptor mix for 2 hours in the dark. 5 uL of 1× donor mix was added to all wells and mixed by shaking followed by overnight incubation in the dark.
pERK AlphaLISA signal was read on the Envision using standard AlphaLISA settings. Percent inhibition of ERK phosphorylation was calculated by % Inhibition=100×(LumHC−LumSample)/(LumHC−LumLC). The low and high controls (LC/HC) are generated from lysate from wells with cells treated with DMSO or […] Staurosporine (BioAustralis, cat #BIA-S1086), […]. IC50 values were calculated by fitting the Curve using XLfit (v5.3.1.3), equation 201: Y=Bottom+(Top−Bottom)/(1+10^((Log IC50−X)*HillSlope)).

SMILES | IC50 (HepG2 (NRAS Q61L)) | IC50 (ABL1 (T315I)) | IC50 (ABL1) | IC50 [1]
Cc1c(F)cncc1-c1cc2cnc(NC(=O)[C@@H]3C[C@@H]3F)cc2n(C)c1=O [Compound 28, (1S,2S)-2-fluoro-N-[3-(5-fluoro-4-methylpyridin-3-yl)-1-methyl-2-oxo-1,6-naphthyridin-7-yl]cyclopropane-1-carboxamide] | 496 nM | 1500 nM | 2.2 nM | 146 nM
Cc1c(F)cncc1-c1cc2cnc(NC(=O)C3CC3)cc2n(C)c1=O [Compound 2, N-[3-(5-fluoro-4-methylpyridin-3-yl)-1-methyl-2-oxo-1,6-naphthyridin-7-yl]cyclopropanecarboxamide] | 334 nM | 680 nM | 1.8 nM | 189 nM

— patent publication US20240287062A1, “NAPHTHYRIDONE COMPOUNDS FOR INHIBITION OF RAF KINASES AND/OR BCR-ABL TYROSINE KINASES” (Enliven Inc., priority 2021, published 2024)
